Experiments:
Assay type in all cases: biochemical
[1] = system: human pancreatic cholesterol esterase; assay: Inhibition of human pancreatic cholesterol esterase, hydrolysis of cholesteryl 14C-oleate in phosphatidylcholine vesicles; details: for IC50, inhibition of cholesterol esterase (cholesteryl oleate hydrolysis) / IC50: substrate cholesteryl 14C-oleate, 37° C., 15 min; for IC50: molar values from assumed molecular weights
[2] = target: human 100 kDa cholesterol esterase; assay: Inhibition of triolein hydrolysis by the human 100 kDa cholesterol esterase; details: substrate triolein instead of cholesteryl oleate
Experimental: Alginic acid from Macrocystis pyrifera (kelp) was dissolved in water at a concentration of 1 mg/ml. This stock solution was used to prepare various polysaccharide concentrations down to 10^-5 mg/ml. Human pancreatic cholesterol esterase was purified as described by Bosner et al., Proc. Nat'l. Acad. Sci., 85, 7438 (1988). To measure cholesterol esterase inhibition by alginic acid, 50 μl of cholesterol esterase (10 μg/ml), 75 μl of phosphatidylcholine vesicles containing cholesteryl ^14 C-oleate (1 mM 2,000 CPM/nmole), 25 μl of 100 mM taurocholate, 120 μl of 150 mM Tris, pH 7.5 and 30 μl of test alginic acid solution were incubated at 37° C. for fifteen minutes. The assay was quenched by placing the reaction vessels in a 4° C. ice bath and by adding 0.6 ml of 0.3 N NaOH and 3 ml of benzene/chloroform/methanol (1.0/1.2/0.5). The quenched reactions were vortexed for 30 seconds, centrifuged at 3,000 g for 15 minutes and 1 ml of the upper aqueous phase was added to 7 ml of Aquasol-2 (DuPont) with 0.025 ml of 6 N HCl. These mixtures were vortexed for one minute and counted for ^14 C-oleate. The counts were compared to a sample which contained cholesterol esterase but no alginic acid to determine the percentage of inhibition.
(The same assay procedure was used as described in Part I, only triolein was used instead of cholesteryl oleate.) As shown in the table below, the IC50 for inhibition of triolein hydrolysis is nearly the same as that for cholesteryl oleate hydrolysis.

cholesterol esterase = assay: Baking stability: cholesterol esterase inhibition by water extract of a baked corn muffin containing the inhibitor; details: baked fifteen minutes in a 400° oven
Experimental: The sulfated polysaccharides described here retain their inhibitory activity for prolonged periods at elevated temperatures. […] For example, 109 mg of cellulose sulfate were added to 198 gm (7 oz) of corn muffin mix (Gold Medal®) and the solid ingredients were thoroughly mixed together. After the addition of one egg and one-third cup milk, the muffin mix was stirred fifteen times. The mixture was poured into nine muffin tins and baked for fifteen minutes in a 400° oven. The next day one muffin was broken up, added to 100 ml of water and allowed to stand for fifteen minutes. The mixture was centrifuged and the clear supernatant was assayed for the presence of cholesterol esterase inhibition. The IC50 of this solution was achieved when this solution was diluted 10^3 -10^4 times.

| Substance | Enhancement Factor ([1]; IC50 of alginic acid relative to IC50 of the sulfated derivative) | IC50, inhibition of cholesterol esterase (cholesteryl oleate hydrolysis) [1] [µg/mL] | IC50 [1] [nM] | IC50 [2] [nM] | Stability of inhibitory activity under baking conditions / elevated temperatures (cholesterol esterase) | Inhibition of cholesterol esterase (in words) [1] |
| --- | --- | --- | --- | --- | --- | --- |
| Alginic acid | 1.0 | 4 | 20 | 42 | – | – |
| Chitin Sulfate | – | – | 0.06 | 0.14 | – | – |
| agar [native (unsulfated) agar] | – | – | 30 | – | – | – |
| pectin [native, unsulfated pectin] | – | – | – | – | – | does not inhibit cholesterol esterase |

More lines, in order of falling IC50 [1], values ahead:

| Enhancement Factor ([1]; IC50 of alginic acid relative to IC50 of the sulfated derivative) | IC50, inhibition of cholesterol esterase (cholesteryl oleate hydrolysis) [1] [µg/mL] | IC50 [1] [nM] | IC50 [2] [nM] | Stability of inhibitory activity under baking conditions / elevated temperatures (cholesterol esterase) | Inhibition of cholesterol esterase (in words) [1] | Substance |
| --- | --- | --- | --- | --- | --- | --- |
| – | 0.015 | 0.03 | 0.16 | – | – | Chitosan Sulfate |
| – | – | 0.02 | 0.06 | stable under baking conditions | – | Cellulose Sulfate |
